Literature values, collected in patent US20260256768A1, “DRY POWDER COMPOSITIONS OF BEDAQUILINE AND SALTS AND METHODS OF USE THEREOF” (Insmed Incorporated, priority 2022, published 2026).

Key:
cancer metastasis = details: in vivo
[1] = system: non-small cell lung cancer cell lines; details: two non-small cell lung cancer cell lines
[2] = system: MCF7 breast cancer cells-derived cancer stem-like cells
lung tumor = details: animal model

## COc1nc2ccc(Br)cc2cc1[C@@H](c1ccccc1)[C@@](O)(CCN(C)C)c1cccc2ccccc12 [bedaquiline, (1R,2S)-1-(6-bromo-2-methoxyquinolin-3-yl)-4-(dimethylamino)-2-naphthalen-1-yl-1-phenylbutan-2-ol]
Cancer metastasis
  effect on cancer metastasis: inhibit cancer metastasis
[1]
  cytotoxicity: cytotoxic properties
[2]
  effect on propagation and expansion of cancer stem-like cells: block the propagation and expansion
Lung tumor
  effect on lung tumor growth and angiogenesis: inhibit lung tumor growth and angiogenesis
